Values belong to the compound of their own block, whether it stands above or below them.
Legend:
HeLa cells [1] = experiment: Fas induced killing of HeLa cells treated with pharmacological agents, count of viable trypan blue excluding cells; type: cell-based, human; details: for effect on Fas induced PCD of HeLa cells, in words (viable cell count): anti-Fas antibody treated HeLa cells, NAC: 50 ng/ml anti-Fas, 5 days, FIG. 6, 8E, 8G, 8H
Protocol: HeLa cells, 1.6×10^5 cells/well were plated in 6 wells plates. 20-24 hours later cells were treated with various concentrations of sulfinpyrazone (Sigma/Aldrich) in 1% DMSO for 15 minutes prior to the addition of 200 ng/ml anti-Fas antibody (clone CH-11, Kamiya Biomedical Company). The number of viable, trypan blue (Gibco/BRL) excluding cells that remained attached to the plate following rinsing with PBS was counted 17 hours post treatment. […]

[2] = target: Fas/CD95/Apo-1 on HeLa cells (human) (UniProt P25445); experiment: cell-based or functional assay
HeLa cells [3] = experiment: Apoptotic index (DAPI staining) of HeLa cells treated with anti-Fas antibody; type: cell-based, human
Protocol: To generate HeLa cells that over-express Nrf2, the human Nrf2 cDNA (Moi et al. 1994) was cloned into the retrovirus expression vector pBABEpuro (Morgenstern and Land 1990) by standard methods. The plasmid was transiently transfected into […] and virus was collected at 36, 48, 60 and 72 hours post transfection. At each time point, freshly collected virus stock was filtered through a […], mixed with […] polybrene (Sigma/Aldrich) and applied to HeLa cells. 24 hours after the last addition of the virus, the cells were subjected to selection in […] Puromycin (Sigma/Aldrich). The pool of Puromycin resistant colonies was expanded. […] Apoptotic index was calculated as the ratio of number of dead cells (containing condensed and/or fragmented chromosomes) to the total number of cells. Average apoptotic index calculated from ten fields from duplicate wells is presented.
For bioassays, HeLa cells, at 8.3×10^4 cells/well were plated in 12 wells plates. […] 20 hours later the apoptotic index of treated cells was determined as described for the Nrf2 bioassays.
HeLa cells, 1.6×10^5 cells/well were plated in 6 wells plates. […] The number of viable, trypan blue (Gibco/BRL) excluding cells that remained attached to the plate following rinsing with PBS was counted 17 hours post treatment. Alternatively, the apoptotic index of treated cells was determined as described for the Nrf2 bioassays.

Sequence of UniProt P25445 (P25445 26-335): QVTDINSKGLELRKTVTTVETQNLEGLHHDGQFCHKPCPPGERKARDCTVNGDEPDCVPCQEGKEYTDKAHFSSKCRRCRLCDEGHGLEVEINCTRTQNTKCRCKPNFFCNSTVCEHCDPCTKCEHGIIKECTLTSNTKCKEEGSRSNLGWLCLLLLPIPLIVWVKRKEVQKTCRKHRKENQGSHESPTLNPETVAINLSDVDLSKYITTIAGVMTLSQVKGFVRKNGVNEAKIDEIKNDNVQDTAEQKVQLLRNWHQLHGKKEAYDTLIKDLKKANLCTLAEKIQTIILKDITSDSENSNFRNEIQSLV

Compound: NCCNS(=O)(=O)c1ccc(Cl)c2ccncc12 [CKI-7, N-(2-aminoethyl)-5-chloroisoquinoline-8-sulfonamide]
- fold more sensitive to FAS induced PCD than the untreated cells (HeLa cells [1]; CKI-7 in 1% DMSO added an hour before 200 ng/ml anti-FAS antibody, counted 17 hours post treatment, FIG. 6): 3.9 fold
- effect on Fas induced PCD of HeLa cells, in words (viable cell count) (HeLa cells [1]): sensitizes

Compound: CC(=O)N[C@@H](CS)C(=O)O [NAC, N-acetyl Cysteine]
- effect on Fas induced PCD of HeLa cells, in words (viable cell count) (HeLa cells [1]): strongly protects
- effect on Fas induced PCD of HeLa cells, in words (viable cell count) (HeLa cells [1]; listed as N-acetyl cysteine): protects

- apoptotic index (DAPI staining), HeLa cells infected with vector alone (Control-1) [2]: 89%
- apoptotic index (DAPI staining), HeLa cells infected with vector alone (Control-2) [2]: 87%
- apoptotic index (DAPI staining), HeLa cells with vehicle [2]: 25%
- apoptotic index (DAPI staining), HeLa cells with vehicle (0 uM Dicumarol) [2]: 25%
Compound: Anti-Fas antibody (clone CH-11, Kamiya Biomedical Company, catalog number MC-060)

Compound: O=C1C(CC[S+]([O-])c2ccccc2)C(=O)N(c2ccccc2)N1c1ccccc1 (stereo not shown) [sulfinpyrazone]
- sensitization to Fas induced killing compared to treatment with vehicle alone (HeLa cells [1]; 2 mM sulfinpyrazone, 200 ng/ml anti-Fas antibody, counted 17 hours post treatment, FIG. 8G): approximately 4 fold

Compound: O=c1oc2ccccc2c(O)c1Cc1c(O)c2ccccc2oc1=O [Dicumarol]
- fold more sensitive to Fas induced killing compared to cells treated with vehicle, measured by the number of viable cells (HeLa cells [1]; 100 uM Dicumarol, 200 ng/ml anti-Fas antibody, counted 17 hours post treatment, FIG. 8E): 2.8 fold
- effect on Fas induced PCD of HeLa cells, in words (viable cell count) (HeLa cells [1]): sensitizes
- killing (apoptotic index) in cells treated with anti-Fas antibody and Dicumarol (HeLa cells [3]; 100 uM Dicumarol, 200 ng/ml anti-Fas antibody, vehicle (0 uM) approximately 25%, FIG. 8F): approximately 100%
- effect on Fas induced PCD of HeLa cells, in words (apoptotic index) (HeLa cells [3]; anti-Fas antibody treated HeLa cells, FIG. 8C, 8D, 8F legends): sensitizes

From patent US20020182694A1, “Novel gene and polypeptide which opposes the Fas pathway” (priority 2001, published 2002)
